Measurements published in patent US7745465B2, “Method of enhancing cellular production of molecular chaperone, hydroxylamine derivatives useful for enhancing the chaperone production and the preparation thereof” (CytRx Corporation, priority 1995, dated 2010).

Experiments:
HSP72 [1] = test: Heat stress induced HSP72 production in 3T3 cells; format: cell-based, mouse; conditions: 10^−5 M
Experimental: From the applied cells the 3T3 and L-929 mouse fibroblasts were cultured in MEM medium and grew in monolayer, the U-937 human leukemia cells were maintained in RPMI-1640 medium, in suspension culture, while the HeLa human epithelial cells were cultured in DMEM medium and in monolayer form. Cell cultures were maintained as described in example 6.2 (a) with the difference that cells were cultured in the above mentioned culture mediums.
Experiments were carried out applying stress before and after the drug treatment. Stress was provoked by heat, by chemical agent, HgCl2 treatment. The test compounds were applied in the treatments at the 10^−5 M concentration.
The experiments on 3T3 cell applying heat stress were performed as described in the 6.2. (c) point of example 6, with the difference that stress was induced by a 30 min. exposure at 43° C. temperature and treatment with the test compounds was performed 15 min. before or 100 min. after the heat stress.
Immunodetection was carried out using the HSP72 specific SPA 810 (StressGene) primary and the horse-radish peroxidase conjugated A9044 (Sigma) secondary antibodies. Densitometric evaluation was performed by a LKB Ultrascan XL densitometer.

Male Sprague-Dawley rats = test: Protection against cardiac ischaemia: survival after 5 minutes coronary occlusion and reperfusion; format: in vivo, rat; conditions: i.v. 1 mg/kgbw, 5 min. before the occlusion; non-treated control 10
Experimental: Male Sprague-Dawley rats (380-450 g b.w.) were anaesthetized with sodiumpentobarbital (Nembutal 60 mg/kg body weight, i.p.) and artificially ventilated with room air (2 ml/100 g; 54 stroke/minutes) via tracheotomy. The right carotid artery was catheterized and connected to a pressure transducer (BPR-01, Stoelting) for the measurement of systemic arterial blood pressure (BP) by means of a preamplifier (Hg-02, Experimetria). Hydroxylamine derivatives disclosed in Example 5 were administered via the venous cannule to jugular vein (i.v.) and orally (p.o.). Heart rate (HR) was measured by a cardiotachometer (HR-01, Experimetria). The electrocardiogram (ECG standard lead II) was recorded on a devices recorder (MR-12, Medicor) by means of subcutaneous steel needles electrodes. The chest was opened by a left thoracotomy and the heart was exteriorized by a gentle pressure on the right side of the rib cage. A 4-0 silk suture was quickly placed under the main left coronary artery as described by Selye et al. (1960). The heart was carefully replaced in the chest and the animal left to recover. Rectal temperature was monitored and kept constant at 37 C. The experimental protocol was initiated with a 15 minute stabilization period during which the observation of a sustained blood pressure less than 70 mmHg and or the occurrence of anhythmia led to exclusion. Myocardial ischemia was induced with coronary occlusion for 5 minutes and reperfusion allowed for 10 minutes.
During the entire experiment BP, HR and ECG were continuously registered on a multiscriptor (R61-6CH, Medicor). Hydroxylamine derivatives, the tautomeric forms of which are represented by structures (I) and (II), were administered 5 to 60 minutes before the occlusion after i.v. and p.o. treatment, respectively. […]
The mean duration of ventricular tachycardia (VT) and/or ventricular fibrillation (VF) during the first 3 minutes of reperfusion was analyzed by one-way analysis of variance. The incidence of VF was analyzed using a chi-square test. […] The haemodynamic variables were analyzed using Student's “t”-test. The critical level of significance was set at p<0.05. All results were expressed as a means±S.E.M. Drugs were administered i.v. in a dose of 1 mg/kgbw 5 min. before the occlusion.
The hydroxylamine derivatives that are found to be particularly advantageous for protecting an animal against ischemic/reperfusion injury are listed below. Survival (%) indicates the percent of animals survived the effects of 5 minutes coronary occlusion.

Hsp72 [2] = test: Heat stress induced hsp72 expression in rat testicular explant; format: cell-based; conditions: 10^−5 M, 15 min. before 43° C. 30 min.
Experimental: Testis of CFY rats weighing of 200 g were removed in sterile conditions and the released testicular tubuli were suspended in 10% fetal bovine serum containing MEM culture medium in that way that five ml suspension contained 50-100 mg tissue. The explants were incubated in 5% CO2 containing humidified air at 37° C. for one hour, then the cultures were treated with 10^−5 M concentration of the tested compounds. After a further incubation for 15 min. at 37° C., explants were exposed to heat shock at 43° C. for 30 min. The amount of the induced hsp72 was measured after a further 6 hours incubation at 37° C.

[3] = treatment 15 min. before 30 min. 43° C. heat stress
[4] = treatment 100 min. after 30 min. 43° C. heat stress

Compound	HSP72 level relative to the stress exposed control (HSP72 [1]; [3])	Level of hsp72 relative to the stress exposed control (Hsp72 [2])	melting point [°C]	further results
Cl.O=[N+]([O-])c1ccccc1C(Cl)=NOCC(O)CN1CCCCC1 (stereo not shown) [Example 6, N-[2-hydroxy-3-(1-piperidinyl)propoxy]-2-nitro-benzenecarboximidoyl chloride monohydrochloride]	+++ (>100%)	+ +	–	HSP72 level relative to the stress exposed control (HSP72 [1]; [4]): 0 (0 indicates that the treatment altered by ±20% the stress induced hsp72 level in the cells); Survival (%) (Male Sprague-Dawley rats): 100%
Cl.OC(CON=C(Cl)c1nccc2ccccc12)CN1CCCCC1 (stereo not shown)	–	–	168 to 172	–
Cl.Cl.N=C(NOCC(O)CN1CCCCC1)c1nccc2ccccc12 (stereo not shown) [Example 46, N-[2-hydroxy-3-(1-piperidinyl)propoxy]-1-isoquinolinecarboximidoyl dihydrochloride]	–	+ + +	–	–
CCCCCCNC(=O)NOCC(O)CN1CCCCC1 (stereo not shown) [Example 58, N-hexyl-N′-[2-hydroxy-3-(1-piperidinyl)propoxy]-urea]	–	0 (0 indicates that the treatment altered by ±20% the stress induced hsp72 level in the cells)	–	HSP72 level relative to the stress exposed control (HSP72 [1]; [4]): +++ (>100%)
Cl.O=[N+]([O-])c1cccc(C(Cl)=NOCC(O)CN2CCCCC2)c1 (stereo not shown) [Example 4, N-[2-hydroxy-3-(1-piperidinyl)propoxy]-3-nitro-benzenecarboximidoyl chloride monohydrochloride]	–	+ (21-50%)	–	Survival (%) (Male Sprague-Dawley rats): 50%
CN(OCCCN1CCCCC1)C(=O)c1ccccc1.Cl [N-methyl-N-[3-(1-piperidinyl)-propoxy]-benzamide hydrochloride]	+ (21-50%)	+ (21-50%)	–	–
Cl.N=C(NOCCCN1CCCCC1)c1cccc([N+](=O)[O-])c1	–	–	158 to 162	–
Cl.Cl.N=C(NOCC(O)CN1CCCCC1)c1ccccc1[N+](=O)[O-] (stereo not shown)	–	–	200 to 208	–
Cl.O=[N+]([O-])c1ccc(C(Cl)=NOCC(O)CN2CCCCC2)cc1 (stereo not shown)	–	–	180 to 182	–
COc1ccc(CC(=N)NOCCCN2CCCCC2)cc1OC.Cl.Cl	–	–	207 to 209	–
CC(=NOCC(O)CNC(C)(C)C)c1cccc(C(F)(F)F)c1.CC(=O)O (stereo not shown) [1-{[3-(t-butylamino)-2-hydroxy-propoxy]-imino}-1-(m-trifluoromethyl-phenyl)-ethane acetate]	+++ (>100%)	+ (21-50%)	–	–
Cl.Cl.N=C(NOCC(O)CN1CCCCC1)c1cccs1 (stereo not shown)	–	–	157 to 170	–
CCCCCCCCCCCCCCCC(=O)OC(CONC(=N)c1cccnc1)CN1CCCCC1.Cl (stereo not shown) [Example 22, N-[2-palmitoyloxy-3-(1-piperidinyl)propoxy]-3-pyridinecarboximidamide monohydrochloride]	+++ (>100%)	0 (0 indicates that the treatment altered by ±20% the stress induced hsp72 level in the cells)	–	HSP72 level relative to the stress exposed control (HSP72 [1]; [4]): + (21-50%); Survival (%) (Male Sprague-Dawley rats): 100%
Cl.ClC(=NOCCCN1CCCCC1)c1cccs1 [N-[3-(1-piperidinyl)-propoxy]-tiophene-2-carboximidoyl-chloride-hydrochloride]	–	+ +	–	–
CC(C)(C)NCC(O)CON=C(Cl)c1cccc(C(F)(F)F)c1.Cl (stereo not shown) [Example 9, N-[3-[(1,1-Dimethylethyl)amino]-2-hydroxypropoxy]-3-trifluoromethylbenzene-carboximidoyl chloride monohydrochloride]	–	+ (21-50%)	–	Survival (%) (Male Sprague-Dawley rats): 100%
Cl.OC(CONC(=NC1CCCCC1)c1cccnc1)CN1CCCCC1 (stereo not shown)	–	–	130 to 134	–
CCN(CC)C(=NOCC(O)CN1CCCCC1)c1cccnc1.Cl (stereo not shown) [Example 51]	+++ (>100%)	–	–	Survival (%) (Male Sprague-Dawley rats): 75%

Compound	HSP72 level relative to the stress exposed control (HSP72 [1]; [3])	Level of hsp72 relative to the stress exposed control (Hsp72 [2])	melting point [°C]	further results
CCN(CC)CCCON=C(Cl)c1cccnc1.Cl [O-(3-diethylamino-propoxy)-3-pyridine-carboximidoyl-chloride hydrochloride]	+++ (>100%)	0 (0 indicates that the treatment altered by ±20% the stress induced hsp72 level in the cells)	–	–
O=C(O)/C=C\C(=O)O.O[C@@H](CON=C(Cl)c1cccnc1)CN1CCCCC1 [Example 77, /R/(+)-N-[2-hydroxyl-3-(1-piperidinyl)propoxy]-3-pyridinecarboximidoyl chloride (Z)-2-butenedioate (1:1)]	+++ (>100%)	–	–	Survival (%) (Male Sprague-Dawley rats): 67%
Cl.Cl.N=C(NOCCCN1CCCCC1)c1ccccc1	–	–	207 to 209	–
CCCCCCNC(=O)NOCCCN1CCCCC1 [Example 61, N-hexyl-N′-[3-(1-piperidinyl)propoxy]-urea]	++ (51-100%)	0 (0 indicates that the treatment altered by ±20% the stress induced hsp72 level in the cells)	–	–
CC(=O)Nc1ccc(C(N)=NOCC(O)CN2CCCCC2)cc1.Cl (stereo not shown) [Example 39]	–	0 (0 indicates that the treatment altered by ±20% the stress induced hsp72 level in the cells)	–	Survival (%) (Male Sprague-Dawley rats): 60%
CCN(CC)CC1CON=C(c2cccnc2)O1.Cl (stereo not shown) [3-(3-piridyl)-5-diethylaminomethyl-5,6-dihydro-6H-1,4,2-dioxazine hydrochloride]	+ (21-50%)	+ +	–	–
CN1CCN(CCCONC(=N)c2cccnc2)CC1.Cl	–	–	127 to 130	–
Cl.Cl.N=C(NOCC(O)CN1CCCCC1)c1ccc([N+](=O)[O-])cc1 (stereo not shown)	–	–	184 to 189	–
N=C(NOCC(CN1CCCCC1)OC(=O)c1ccco1)c1cccnc1.O=C(O)/C=C\C(=O)O (stereo not shown)	–	–	167 to 171.5	–
Cl.OC(CNC1CCCCC1)CON=C(Cl)c1cccc(C(F)(F)F)c1 (stereo not shown)	–	–	147 to 149.5	–
CC(C)(C)NC1CON=C(c2cccnc2)O1 (stereo not shown) [3-(3-piridyl)-5-t-butylamino-5,6-dihydro-6H-1,4,2-dioxazine]	+ (21-50%)	0 (0 indicates that the treatment altered by ±20% the stress induced hsp72 level in the cells)	–	–
Cl.N=C(NOCC(CN1CCCCC1)OC(=O)c1ccccc1Cl)c1cccnc1 (stereo not shown)	–	–	91 to 94	–
Cl.Cl.ClC(=NOCCCN1CCCCC1)c1cccnc1 [Example 78, N-(3-piperidino-1-propoxy)-3-pyridinecarboximidoyl chloride dihydrochloride]	+++ (>100%)	+ +	–	Survival (%) (Male Sprague-Dawley rats): 100%
O=C(O)/C=C\C(=O)O.OC(CON=C(Cl)c1ccncc1)CN1CCCCC1 (stereo not shown) [Example 8, N-[2-hydroxy-3-(1-piperidinyl)propoxy]-4-pyridinecarboximidoyl chloride (Z)-2-butenedioate (1:1)]	–	–	–	HSP72 level relative to the stress exposed control (HSP72 [1]; [4]): ++ (51-100%); Survival (%) (Male Sprague-Dawley rats): 100%
Cl.N=C(NOCCCN1CCCCC1)c1cccc(C(F)(F)F)c1	–	–	116 to 119	–
5,6-dihydro-3-(4-chloro-phenyl)-5-[N-methyl-piperidinium-1-yl]-methyl-4H-1,2,4-oxadiazine iodide	++ (51-100%)	+ (21-50%)	–	–
